5 cell lines from the supplement of paper PMC10307832 can be followed below.

Holding throughout (assay): relative viability (nuclei count vs DMSO), 5 days (fraction); higher = more cells survive
Compound in the assay “BAY61-3606 + OSI-027”: COC1=C(C=C(C=C1)C2=CC3=NC=CN3C(=N2)NC4=C(C=CC=N4)C(=O)N)OC [BAY61-3606] + COc1cccc2cc(-c3nc([C@H]4CC[C@H](C(=O)O)CC4)n4ncnc(N)c34)[nH]c12 [OSI-027] (partner 0.5 µM)
Put shortly:
(§1)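 Lung cancer cell lines in 1536-well plates got either a single drug or a fixed anchor-drug dose together with five library-drug doses (not always all listed) in √10 steps, by pin tool, on the day after seeding. Nuclei were counted after 5 days, and relative viability is the treated-to-vehicle ratio of nuclei counts. Values are medians of duplicate plates.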

Compound in the assay “BAY61-3606 + Tozasertib”: COC1=C(C=C(C=C1)C2=CC3=NC=CN3C(=N2)NC4=C(C=CC=N4)C(=O)N)OC [BAY61-3606] + Cc1cc(Nc2cc(N3CCN(C)CC3)nc(Sc3ccc(NC(=O)C4CC4)cc3)n2)n[nH]1 [Tozasertib] (partner 0.1 µM)
Put shortly:
as §1

Compound in the assay “BAY61-3606 + AZD7762”: COC1=C(C=C(C=C1)C2=CC3=NC=CN3C(=N2)NC4=C(C=CC=N4)C(=O)N)OC [BAY61-3606] + NC(=O)Nc1cc(-c2cccc(F)c2)sc1C(=O)N[C@H]1CCCNC1 [AZD7762] (partner 0.2 µM)
The procedure, abridged:
as §1

Compound in the assay “Doxorubicin + Alpelisib”: COc1cccc2c1C(=O)c1c(O)c3c(c(O)c1C2=O)C[C@@](O)(C(=O)CO)C[C@@H]3O[C@H]1C[C@H](N)[C@H](O)[C@H](C)O1 [Doxorubicin] + Cc1nc(NC(=O)N2CCC[C@H]2C(N)=O)sc1-c1ccnc(C(C)(C)C(F)(F)F)c1 [Alpelisib] (partner 2 µM)
Put shortly:
as §1

For the cell line NCI-H2405, the relative viability was 0.676 in the assay with BAY61-3606 + OSI-027 (first compound 0.02 µM); 0.63 with BAY61-3606 + OSI-027 (first compound 0.06325 µM); 0.64 with BAY61-3606 + OSI-027 (first compound 0.2 µM); 0.756 in the assay with BAY61-3606 + OSI-027 (first compound 0.6325 µM); 0.65 in the assay with BAY61-3606 + OSI-027 (first compound 2 µM); 0.698 with BAY61-3606 + Tozasertib (first compound 0.02 µM). Moreover, the relative viability amounted to 0.426 with BAY61-3606 + Tozasertib (first compound 0.06325 µM); 0.479 with BAY61-3606 + Tozasertib (first compound 0.2 µM); 0.491 in the assay with BAY61-3606 + Tozasertib (first compound 0.6325 µM); 0.287 with BAY61-3606 + Tozasertib (first compound 2 µM); 0.832 with BAY61-3606 + AZD7762 (first compound 0.02 µM); 0.658 in the assay with BAY61-3606 + AZD7762 (first compound 0.06325 µM). Moreover, the relative viability with BAY61-3606 + AZD7762 (first compound 0.2 µM) is 0.748; with BAY61-3606 + AZD7762 (first compound 0.6325 µM), 0.658; with BAY61-3606 + AZD7762 (first compound 2 µM), 0.496; in the assay with Doxorubicin + Alpelisib (first compound 0.003162 µM), 0.728; with Doxorubicin + Alpelisib (first compound 0.01 µM), 0.82; with Doxorubicin + Alpelisib (first compound 0.03162 µM) it was 0.663. The relative viability in the assay with Doxorubicin + Alpelisib (first compound 0.1 µM) worked out at 0.406.
For the cell line LOU-NH91, the relative viability with BAY61-3606 + OSI-027 (first compound 0.02 µM) came to 0.743; with BAY61-3606 + OSI-027 (first compound 0.06325 µM), 0.725; with BAY61-3606 + OSI-027 (first compound 0.2 µM), 0.766; in the assay with BAY61-3606 + OSI-027 (first compound 0.6325 µM), 0.719; with BAY61-3606 + OSI-027 (first compound 2 µM), 0.708; with BAY61-3606 + Tozasertib (first compound 0.02 µM), 0.617. Also, the relative viability with BAY61-3606 + Tozasertib (first compound 0.06325 µM) came to 0.363; with BAY61-3606 + Tozasertib (first compound 0.2 µM) it was 0.473; with BAY61-3606 + Tozasertib (first compound 0.6325 µM), 0.422; in the assay with BAY61-3606 + Tozasertib (first compound 2 µM), 0.344; with BAY61-3606 + AZD7762 (first compound 0.02 µM) it was 0.792; with BAY61-3606 + AZD7762 (first compound 0.06325 µM), 0.686. Moreover, the relative viability in the assay with BAY61-3606 + AZD7762 (first compound 0.2 µM) came to 0.748; with BAY61-3606 + AZD7762 (first compound 0.6325 µM) it was 0.784; with BAY61-3606 + AZD7762 (first compound 2 µM), 0.656; in the assay with Doxorubicin + Alpelisib (first compound 0.003162 µM), 0.707; in the assay with Doxorubicin + Alpelisib (first compound 0.01 µM), 0.701; with Doxorubicin + Alpelisib (first compound 0.03162 µM) it was 0.589. The relative viability with Doxorubicin + Alpelisib (first compound 0.1 µM) was 0.398.
Regarding EPLC-272H, the relative viability was found to be 0.269 with BAY61-3606 + OSI-027 (first compound 0.02 µM); 0.268 in the assay with BAY61-3606 + OSI-027 (first compound 0.06325 µM); 0.267 in the assay with BAY61-3606 + OSI-027 (first compound 0.2 µM); 0.329 in the assay with BAY61-3606 + OSI-027 (first compound 0.6325 µM); 0.333 in the assay with BAY61-3606 + OSI-027 (first compound 2 µM); 0.262 with BAY61-3606 + Tozasertib (first compound 0.02 µM). The relative viability in the assay with BAY61-3606 + Tozasertib (first compound 0.06325 µM) was determined as 0.247; with BAY61-3606 + Tozasertib (first compound 0.2 µM), 0.362; in the assay with BAY61-3606 + Tozasertib (first compound 0.6325 µM), 0.242; in the assay with BAY61-3606 + Tozasertib (first compound 2 µM), 0.157; in the assay with BAY61-3606 + AZD7762 (first compound 0.02 µM) it was 0.223; with BAY61-3606 + AZD7762 (first compound 0.06325 µM), 0.193. Besides, the relative viability turned out to be 0.313 with BAY61-3606 + AZD7762 (first compound 0.2 µM); 0.186 in the assay with BAY61-3606 + AZD7762 (first compound 0.6325 µM); 0.173 in the assay with BAY61-3606 + AZD7762 (first compound 2 µM); 0.898 with Doxorubicin + Alpelisib (first compound 0.001 µM); 1.04 with Doxorubicin + Alpelisib (first compound 0.003162 µM); 0.913 with Doxorubicin + Alpelisib (first compound 0.01 µM). Also, the figures for the relative viability in the assay with Doxorubicin + Alpelisib (first compound 0.03162 µM) and with Doxorubicin + Alpelisib (first compound 0.1 µM) were 0.902 and 1.02, respectively.
Turning to NCI-H1975, the relative viability with BAY61-3606 + OSI-027 (first compound 0.02 µM) amounted to 0.797; in the assay with BAY61-3606 + OSI-027 (first compound 0.06325 µM) it was 0.756; with BAY61-3606 + OSI-027 (first compound 0.2 µM), 0.692; with BAY61-3606 + OSI-027 (first compound 0.6325 µM), 0.635; in the assay with BAY61-3606 + OSI-027 (first compound 2 µM), 0.333; with BAY61-3606 + Tozasertib (first compound 0.02 µM), 0.763. Besides, the relative viability in the assay with BAY61-3606 + Tozasertib (first compound 0.06325 µM) worked out at 0.521; in the assay with BAY61-3606 + Tozasertib (first compound 0.2 µM), 0.323; with BAY61-3606 + Tozasertib (first compound 0.6325 µM) it was 0.257; with BAY61-3606 + Tozasertib (first compound 2 µM) it was 0.11; with BAY61-3606 + AZD7762 (first compound 0.02 µM), 0.706; with BAY61-3606 + AZD7762 (first compound 0.06325 µM), 0.603. In addition, the relative viability with BAY61-3606 + AZD7762 (first compound 0.2 µM) was 0.621; with BAY61-3606 + AZD7762 (first compound 0.6325 µM) it was 0.654; in the assay with BAY61-3606 + AZD7762 (first compound 2 µM), 0.348; with Doxorubicin + Alpelisib (first compound 0.001 µM), 0.64; with Doxorubicin + Alpelisib (first compound 0.003162 µM) it was 0.597; with Doxorubicin + Alpelisib (first compound 0.01 µM), 0.625. For the same cell line, the relative viability in the assay with Doxorubicin + Alpelisib (first compound 0.03162 µM) was 0.334; with Doxorubicin + Alpelisib (first compound 0.1 µM) it was 0.232.
Consider NCI-H322M, for which the relative viability in the assay with BAY61-3606 + OSI-027 (first compound 0.02 µM) stood at 0.53; with BAY61-3606 + OSI-027 (first compound 0.06325 µM), 0.592; with BAY61-3606 + OSI-027 (first compound 0.2 µM) it was 0.562; in the assay with BAY61-3606 + OSI-027 (first compound 0.6325 µM), 0.582; with BAY61-3606 + OSI-027 (first compound 2 µM), 0.47; in the assay with BAY61-3606 + Tozasertib (first compound 0.02 µM), 0.498. Further, the relative viability with BAY61-3606 + Tozasertib (first compound 0.06325 µM) amounted to 0.477; with BAY61-3606 + Tozasertib (first compound 0.2 µM), 0.48; with BAY61-3606 + Tozasertib (first compound 0.6325 µM), 0.421; with BAY61-3606 + Tozasertib (first compound 2 µM), 0.412; with BAY61-3606 + AZD7762 (first compound 0.02 µM) it was 0.528; with BAY61-3606 + AZD7762 (first compound 0.06325 µM) it was 0.525. Moreover, the relative viability in the assay with BAY61-3606 + AZD7762 (first compound 0.2 µM) came out at 0.579; in the assay with BAY61-3606 + AZD7762 (first compound 0.6325 µM) it was 0.522; with BAY61-3606 + AZD7762 (first compound 2 µM) it was 0.571; in the assay with Doxorubicin + Alpelisib (first compound 0.001 µM), 0.916; with Doxorubicin + Alpelisib (first compound 0.003162 µM) it was 0.77; in the assay with Doxorubicin + Alpelisib (first compound 0.01 µM), 0.924. The relative viability is 0.769 with Doxorubicin + Alpelisib (first compound 0.03162 µM) and 0.777 in the assay with Doxorubicin + Alpelisib (first compound 0.1 µM).
